Like-named read-outs stand apart in the source and are kept apart here.
Legend:
[1] = test system: Cyc6 promoter; format: cell-based, Chlamydomonas reinhardtii; conditions: for Luc activity induction relative to PsaD: 75 μM Ni2+
Text: (§1) In order to measure quantitatively the transcription of a gene sequence placed under the control of the Cyc6 promoter, we cloned downstream of this promoter the reporter gene cRLuc (Fuhrmann et al., 2004). This gene was also cloned downstream of the strong constitutive PsaD promoter (Fischer e Rochaix, 2001) obtaining the cassettes Cyc6:cRLuc and PsaD:cRLuc (FIG. 1A). Chlamydomonas cells were transformed with these cassettes according to Kindle (1990) and the transformed cells were inoculated in TAP growth medium (Harris, 1989) at a cell density of 10^6 cells/ml. 30 hours later, Ni2+ was added at a final concentration of 25, 50 and 75 μM and Luc activity was measured in the cellular lysates at different times after induction using the Luciferase Assay System (Promega, cat. E2820).
(§2) Ni2+ was added to cells transformed with the construct Cyc6:cRLuc (indicated as “transformed cells” from now on) and grown in TAP, TAP/ENEA1 and TAP/ENEA2 growth media. […] An ideal inducible gene system should be promptly reversible after the addition of an antagonist of the inducer, effective at micromolar concentrations.
(§3) Since the Cyc6 promoter is switched off by Cu2+, the use of chelators specific for that ion can be an alternative method for the reversible induction of this promoter. As an example, FIGS. 4A and 4B show, respectively, the Luc activity and the growth curves of cells transformed with the construct Cyc6:cRLuc grown in TAP/ENEA2 growth medium and induced with the chelators listed in Table 3. […] In the present invention, we propone an alternative method to the Ni2+/EDTA system: activation by Cu chelators, followed by reversion by Cu2+ addition. […] In these experiments, the Cyc6 promoter was induced by 2 μM TETA and repressed by 1 μM Cu2+ (FIG. 4D) and by 5 μM TETA and by 2 μM Cu2+ (FIG. 4E). At 88 hours from TETA addition, the culture in stationary phase was diluted 1:20 and after 30 hours (0 hours of the second cycle) TETA was added at concentrations of 2 (FIG. 4D) e 5 μM (FIG. 4E). At 16 hours Cu2+ was added at the concentration of 1 (FIG. 4D) and 2 μM (FIG. 4E). […] In the system described here, activation and repression of the promoter are obtained respectively by addition of an inducer and its antagonist. In none of the chemically regulated gene expression systems described to date, such an activation followed by repression has been described.
A, C, E: Luc activity of Chlamydomonas cells transformed with the Cyc6:cRLuc construct in TAP, TAP/ENEA1 and TAP/ENEA2 growth media in the presence of 25 μM (A), 50 μM (C), 75 μM (E) Ni2+. B, D, F: Growth curves of the transformed cells grown in TAP, TAP/ENEA1 and TAP/ENEA2 growth media in the presence of different Ni2+ concentrations, 25 μM (B), 50 μM (D), 75 μM (F) Ni2+. For the composition of the different media, see Table 2.
(§4) A: Luc activity of cells transformed with Cyc6:cRLuc construct induced by the different chelators listed in Table 3 in TAP/ENEA2 growth medium. B: Growth curves in TAP/ENEA2 growth medium in the presence of different Cu-chelators.

[2] = test system: Cyc6 promoter; experiment: Reversibility of Cyc6 promoter induction (Luc activity) after addition of an antagonist (EDTA or Cu2+); format: cell-based, Chlamydomonas reinhardtii
Text: as §3, §4

[3] = test system: Chlamydomonas growth; conditions: for toxicity effects on Chlamydomonas growth: TAP medium; for effect on Chlamydomonas growth rate: all three growth media
Text: as §1, §2, §3
A: Schematic maps of the PsaD:cRLuc and Cyc6:cRLuc constructs B: Schematic maps of the Cyc6:Rb-int-1, Cyc6:Rb-int-2, Cyc6:Rb:int-3 constructs C: Growth curves in TAP medium after addition of different Ni concentrations D: Luc activity driven by PsaD and Cyc6 in TAP medium after addition of different Ni concentrations
A, C, E: Luc activity of Chlamydomonas cells transformed with the Cyc6:cRLuc construct in TAP, TAP/ENEA1 and TAP/ENEA2 growth media in the presence of 25 μM (A), 50 μM (C), 75 μM (E) Ni2+.

## NCCNCCNCCN [TETA, triethylentetramine]
[1]
  Cyc6 promoter activation in TAP/ENEA2 versus TAP: only in TAP/ENEA2 growth medium
  activation of the Cyc6 promoter (Luc activity): able to activate the Cyc6 promoter
  time course of Luc activity after chelator addition: increases steadily until 48 hours
[2]
  induction in a second growth cycle: a second induction is obtained

## O=C(O)CN(CCN(CC(=O)O)CC(=O)O)CC(=O)O [EDTA]
[2]; EDTA 25, 50 and 150 μM added 16 hours after 25 or 50 μM Ni2+, TAP/ENEA2 and TAP
  reversion of Cyc6 promoter activity (Luc) by EDTA: only partially reverted

## Cn1ccnc1CNC1CC(NCc2nccn2C)CC(NCc2nccn2C)C1 (stereo not drawn) [IM, 1,3,5-cis,cis,-triaminocyclohexane-N,N′,N″-tris-(2-methyl-(N-methylimidazole))]
[1]; chelator 10 μM, TAP/ENEA2
  activation of the Cyc6 promoter (Luc activity): able to activate the Cyc6 promoter

## Cc1cc(-c2ccc(S(=O)(=O)O)cc2)c2ccc3c(-c4ccc(S(=O)(=O)O)cc4)cc(C)nc3c2n1 [BCS, bathocuproinedisulfonic acid]
[1]; chelator 10 μM, TAP/ENEA2
  activation of the Cyc6 promoter (Luc activity): able to activate the Cyc6 promoter

## [Cu+2] [Cu2+]
[2]; 2 μM Cu2+ added 16 hours after chelator addition, TAP/ENEA2
  effect on Luc activity after TETA induction: represses Luc activity
[2]; micromolar Cu2+, TAP/ENEA2, FIG. 4C
  reversion of TETA induction by Cu2+: can be reverted

## c1cnc2c(c1)ccc1cccnc12 [1.10 phenanthroline, 1,10-phenanthroline]
[3]; chelator 10 μM, TAP/ENEA2
  toxicity on Chlamydomonas growth: toxic

## [Ni+2] [Ni2+]
[1]; 25 μM Ni2+
  Cyc6 promoter activity in TAP, TAP/ENEA1 and TAP/ENEA2: active only in TAP/ENEA2 growth medium
[1]; 25 μM Ni2+, TAP medium
  activation of the Cyc6 promoter: not sufficient to activate the Cyc6 promoter
[1]; 25 μM Ni2+, TAP/ENEA2
  Cyc6 promoter activity relative to PsaD promoter: same level of activity as the strong PsaD promoter
[1]; 50 μM Ni2+
  increase of Cyc6 promoter activity in TAP/ENEA2 with respect to TAP medium: 25 times
[1]; 50 μM Ni2+, TAP
  Cyc6 promoter activity relative to PsaD: 1/10
[1]; 50 μM Ni2+, TAP/ENEA1
  Cyc6 promoter activity relative to PsaD: ½
[1]; 50 μM Ni2+, TAP/ENEA2
  Cyc6 promoter activity relative to PsaD: 2.5 fold more than PsaD
[1]; TAP/ENEA1
  Luc activity induction relative to PsaD: about two-fold
[1]; TAP/ENEA2
  Luc activity induction relative to PsaD: about two-fold
[1]; 25, 50 and 75 μM Ni2+, TAP medium
  Luc activity after induction compared to PsaD promoter: low compared to the Luc activity driven by the PsaD promoter
[3]; 25 μM Ni2+
  toxicity effects on Chlamydomonas growth: does not have toxic effects
[3]; 25 μM Ni2+, all three growth media (TAP, TAP/ENEA1, TAP/ENEA2)
  toxic effects on growth: only minor toxic effects
[3]; 50 μM Ni2+
  toxicity effects on Chlamydomonas growth: toxicity effects
  effect on Chlamydomonas growth rate: evident slowing down of Chlamydomonas growth rate
[3]; 75 μM Ni2+
  toxicity effects on Chlamydomonas growth: toxicity effects
  effect on Chlamydomonas growth rate: evident slowing down of Chlamydomonas growth rate

Source: US20110033938A1, “SYSTEM FOR INDUCIBLE GENE EXPRESSION IN CHLAMYDOMONAS” (priority 2008, published 2011)
